Data reported in patent US11110098B2, “Methods and medicaments for the treatment of renal cell carcinoma” (University of Kansas, priority 2017, dated 2021).

Experiments:
Caki-1 cells [1] = test: MTT cell viability, Caki-1 cells; assay type: cell-based; settings: Homo sapiens, 48 h, read-out: dose at which cell viability declined by 50%
Protocol: (§1) MTT assays were performed to measure cell viability. Briefly, exponentially growing 786-O and Caki-1 cells were seeded in 96 well plates. After 24 h, cells were incubated with different doses of OPC31260 for 48 h. The cells were then incubated in MTT solution (5 mg/mL) for 2 h, following which the MTT solution was removed and the intracellular purple formazan was solubilized in DMSO and quantified by spectrophotometry at […].

Caki-1 cells [2] = test: TUNEL assay for apoptosis in xenograft tumor sections; assay type: in vivo, Nu/Nu mice; settings: OPC31260 IP, tolvaptan 120 mg/Kg oral, dDAVP 1 μg/Kg IP, daily 28 days
Protocol: (§2) Female Athymic Nude-Foxn1^nu mice (Nu/Nu mice), 7-8 weeks old and weighing ˜25 g were procured from Envigo/Harlan. All animal studies were carried out according to the protocols approved by the University of Kansas Medical Center Institutional Animal Care and Use Committee. Mice were subcutaneously injected on the right flank region with 1×10^6 Caki-1 cells in 100 μl of DMEM medium. One week after injection, palpable tumors appeared and tumor volume was measured with calipers following the formula, […]. Once the tumor volume reached ˜80-100 mm^3, mice were randomized into sub-groups based on the tumor volume. Animals were administered vehicle, OPC31260 (30 mg/Kg BWt.), OPC31260 (60 mg/Kg BWt) or dDAVP (1 μg/Kg BWt.) and vehicle (saline) by daily intraperitoneal injection, or tolvaptan (120 mg/Kg BWt. in 1% aqueous solution of hydroxypropyl methylcellulose-dose derived from previous study^31) or vehicle by daily oral gavage for 28 days. Body weights and tumor volumes were measured every alternate day. At the end of the study, mice were injected with BRDU (100 mg/Kg BWt. by IP) 90 minutes before sacrifice. Tumors were harvested, photographed and weighed. Tumors were flash frozen or paraffin embedded for further analysis.
TUNEL assays were performed to check apoptosis using the in situ Cell Death Detection Kit (Roche Applied Science, Indianapolis, Ind.). Briefly, slides with 5-μm tumor sections were treated to a TUNEL reaction mixture containing terminal deoxynucleotidyl transferase and nucleotides, including tetramethylrhodamine-labeled dUTP. Both Dapi stained and TUNEL-positive nuclei were counted as described for proliferating cell nuclear antigen. All images were captured using a Nikon 80i microscope (Tokyo, Japan) in the KUMC Imaging Center.

Caki-1 cells [3] = test: Western blot of cell lysate, Caki-1 cells; assay type: cell-based, human; settings: 48 h
Description: (§3) Tumors from mouse xenografts and cultured 786-O and Caki-1 cells were homogenized in SDS Laemmli buffer and loaded onto 10% SDS-polyacrylamide agarose gel electrophoresis gels, transferred to nitrocellulose membranes and blocked with 5% milk in TBST^32. Membranes were probed with primary antibody followed by wash and horseradish peroxidase secondary antibody application.

786-O cells [4] = test: MTT cell viability, 786-O cells; assay type: cell-based; settings: Homo sapiens, 786-0, 48 h, read-out: dose at which cell viability declined by 50%
Protocol: as §1

Caki-1 cells [5] = test: Annexin V-FITC/PI apoptosis/necrosis, Caki-1 cells; assay type: cell-based, human; settings: 24 h
Protocol: (§4) Annexin V-FITC/PI staining was performed for quantification of apoptosis and necrotic cell death using FITC AnnexinV apoptosis detection kit I. Green FITC dye stains apoptotic cells whereas propidium iodide stains necrotic cells with red fluorescence. RCC cells were incubated with OPC31260 for 24 h and washed in cold PBS and resuspended in calcium containing binding buffer (10 mM HEPES, 140 mM NaCl, 5 mM CaCl2; pH 7.4) at a concentration of 1×10^6 cells/ml and stained for 15 min, with 5 μl Annexin V-FITC and 5 μl PI at 1 μg/ml (Cell signaling kit, USA). 10,000 cells were analyzed at an excitation wavelength of 488 nm and emission wavelengths of 530 nm for FITC fluorescence and 610 nm for PI fluorescence. The percentages of viable (Annexin V−PI−), early apoptotic (Annexin V+PI−), late apoptotic/necrotic (Annexin V+PI+) and necrotic cells (Annexin V-PI+) were evaluated with the CellQuestPro® software (Becton, Dickinson, Heidelberg, Germany).

[6] = system: pERK1/2, ERK1/2, pCREB, CREB, VEGF; test: Immunoblotting of xenograft tumor lysates; assay type: in vivo, Nu/Nu mice; settings: tolvaptan 120 mg/Kg oral
Protocol: as §2, §3

786-O cells [7] = test: Cell cycle analysis (propidium iodide, FACS), 786-O cells; assay type: cell-based, human; settings: 24 h, 10 μM or higher doses
Protocol: 786-O and Caki-1 cells were incubated for 24 h with 0, 1, 5, 10, 25 or 50 μM of OPC31260, and stained with propidium iodide for analysis by flow cytometry. Cells were rinsed with PBS and trypsinized, and washed twice with PBS. Single-cell suspensions were fixed using pre-chilled 70% ethanol overnight, and subsequently permeabilized with PBS containing 0.1% Triton X-100, 1 mg/ml propidium iodide (Sigma-Aldrich) and 2 mg/ml DNase-free RNase at room temperature. Flow cytometry was done with a FACS Calibur analyzer (Becton Dickinson, Mountain, View, Calif.), capturing 10,000 events for each sample. Results were analyzed with ModFit LT™ software (Verity Software House, Topsham, Me.).

786-O cells [8] = test: Annexin V-FITC/PI apoptosis/necrosis, 786-O cells; assay type: cell-based, human; settings: 24 h
Protocol: as §4

786-O cells [9] = test: Western blot of cell lysate, 786-O cells; assay type: cell-based, human; settings: 24 h
Description: as §3

CCRCC = test: Immunocompetent animal model of spontaneous CCRCC; assay type: in vivo, Vh1Δ/ΔTrp53Δ/ΔRb1Δ/Δ mice; settings: treatment from 30 weeks after start of tamoxifen till 56 weeks
Description: The Vh1^Δ/ΔTrp53^Δ/ΔRb1^Δ/Δ mice (Harlander S et al, Nat Med 2017 23(7):869-877) can spontaneously develop CCRCC. Gene deletion of Vhl and tumor suppressors p53 and Rb 1 will be achieved using a Ksp1.3-CreERT2, tamoxifen-inducible system. For the studies, 6-week old Vh1^Δ/ΔTrp53^Δ/ΔRb1^Δ/ΔKsp1.3-CreERT2 mice will be treated with vehicle (saline) or tamoxifen for 14 days used to obtain wildtype control mice and Vh1^Δ/ΔTrp53^Δ/ΔRb1^Δ/Δ mice with RCC stumors. Starting 30 weeks after start of tamoxifen, the wildtype and Vh1^Δ/ΔTrp53^Δ/ΔRb1^Δ/Δ mice will be treated with vehicle, dDAVP, OPC31260, or tolvaptan till 56 weeks. The effect of V2R activation or inhibition will be monitored by MRI as well as by gross and pathological analysis and of kidneys at sacrifice.

[10] = OPC31260 30/60 mg/kg IP, dDAVP 1 μg/Kg IP, 28 days

Cc1ccccc1C(=O)Nc1ccc(C(=O)N2CCCC(N(C)C)c3ccccc32)cc1 (stereo not drawn) [OPC31260, 5-(dimethylamino)-1-[4-(2-methylbenzamido)benzoyl]-2,3,4,5-tetrahydro-1H-benzazepine] was tested, and the IC50 (Caki-1 cells [1]) was 5 to 10 µM, the “TUNEL staining of tumors compared to vehicle” value (Caki-1 cells [2]) was “increased” and the pCREB levels (Caki-1 cells [3]) was “dose-dependently reduced”. For the same compound, the pERK1/2 levels (Caki-1 cells [3]) was “dose-dependently reduced”, the IC50 (786-O cells [4]) was 5 to 10 µM and the apoptosis (Caki-1 cells [5]) was “increase in apoptosis”. For the same compound, the “CREB levels in tumor lysates” value ([6]; OPC31260 30/60 mg/kg IP, 28 days) was “reduced”, the “pCREB levels in tumor lysates” value [6, 10] was “reduced” and the “pERK1/2 levels in tumor lysates” value [6, 10] was “reduced”. For the same compound, the “VEGF protein levels in tumors compared to vehicle” value ([6]; OPC31260 IP, dDAVP 1 μg/Kg IP, daily 28 days) was “significantly reduced”, the “cells in G2/M phase” value (786-O cells [7]) was 60-70% and the apoptosis (786-O cells [8]) was “increase in apoptosis”. The pCREB levels (786-O cells [9]) was “dose-dependently reduced”, the pERK1/2 levels (786-O cells [9]) was “dose-dependently reduced” and the “expected tumor burden / tumor growth” value (CCRCC) was “significantly suppress tumor growth”.
